Data published in US20070041904A1, “Peptides whose uptake by cells is controllable” (priority 2003, published 2007).

What was measured:
[1] = Phage display selection, all screens
Method: (§1) In-vivo selections were performed by injection of phage libraries into mice either containing tumor xenografts (HT1080 cells) or mammary tumors in transgenic mice (MMTV-PyMT). Tumor tissues were removed 3-24 hrs after injection. The rescued phage were re-amplified in bacteria and reinjected into another mouse for up to 7 iterative cycles of selection. Representative phage were isolated at each round and sequenced to monitor the selection process.
(§2) In-vitro selection strategies involved screening for phage that are specifically cleaved by purified enzymes or tissue extracts associated with tumor tissue while also selecting against cleavage by enzymes and extracts associated with normal tissue. […] The inventors have employed two different in-vitro selection paradigms. In the initial selection, the 2.5×10^6 diversity M13 library was treated with the kidney proteases meprin and neprilysin for 3 hours. Ni-NTA agarose (Qiagen) was then added and allowed to bind to the phage for 5-15 minutes, then the Ni-NTA agarose carrying the phage was resuspended with MMP-9 and incubated at 37 for 2-3 hours. After removing the beads by centrifugation, phage released into the supernatant were plated with fresh bacteria. This procedure selects for phage that remain uncleaved by kidney proteases but are then released by MMP-9. This procedure was repeated for as many as six rounds with representative phage being isolated and sequenced to monitor the selection process. The same selection procedure was also performed with liver/kidney extract instead of meprin/neprilysin and tumor extract instead of MMP-9. The resulting sequences are tabulated below. The most promising peptides were chemically resynthesized with flanking e9 and r9 sequences and a C-terminal fluorescein tag. They were then assayed by tricine gel electrophoresis for cleavage by tumor, liver, kidney extracts and MMP-9.

[2] = test system: neprilysin / meprin / MMP-9; assay: In-vitro phage selection, Nep/Mep/MMP-9
Method: as §2

[3] = test system: Jurkat cells; assay: Gd-labeled ACPP uptake into Jurkat cells, ICP-MS; type: cell-based, human
Method: Gadolinium chloride (GdCl3) is used to add gadolinium (Gd) to provide a contrast-enhancing, PEGylated ACPP mPEG-S—CH2CONH-e9-ahx-PLGLAG-r9-K[DOTA(Gd)]-CONH2 (SEQ ID NO: 75). It will be understood that in other embodiments the ACPP need not include a PEG moiety, and may include other moieties as well. […] Jurkat cells were incubated with 8 μM of the intact or of the cleaved substrate at 37° C. for 30 min; then the cells were washed four times with RT HBSS. Gd concentration was determined by ICP-MS (inductively coupled plasma mass spectroscopy). Cleavage led to a 19-fold increase in uptake by target cells.
Three ACPPs carrying Gd^3+ were synthesized: (11-KDa-mPEG)-e9-XPLGLAG-r9-K(DOTA-Gd), Suc9-(70 KDa dextran)-e9-XPLGLAG-r9-K(DOTA-Gd), and Suc9-(70 KDa dextran)-e9-XPLGLAX-r9-K(DOTA-Gd). The first of these ACCPs was tested at 8 μM on isolated Jurkat lymphocytes. Gd^3+ uptake was measured by inductively coupled plasma mass spectroscopy. […] Thus, MMP-mediated cleavage of the test peptide increased uptake by a factor of 19-fold […].

[4] = test system: furin; assay: Furin inhibition assay; type: biochemical
Method: The furin assay was performed with Boc-Arg-Val-Arg-Arg-MCA substrate (Bachem) at a final concentration of 200 μM in 100 μl of 100 mM MES/NaOH, pH 7.0, containing 1 mM CaCl2. Inhibitory peptides were pre-incubated with 1 unit furin enzyme (NEB) for 30 min prior to addition of substrate. Assays were performed in triplicate by incubation at 37° C. for 4 hours in a 96-well clear-bottom black-wall Costar plate. Release of MCA was measured by excitation at 380 nm and emission at 460 nm. IC50's were determined as the concentration of inhibitor required to inhibit 50% of the emission increase at 460 nm over the no-enzyme control. […]

[5] = In-vitro phage selection, liver/kidney/tumor extracts
Method: as §2

[6] = test system: Jurkat cells; assay: 99mTc-labeled ACPP uptake into Jurkat cells, gamma counting; type: cell-based, human; conditions: for increase in cell-associated radioactivity after cleavage: MMP-9 cleaved vs intact
Method: ACPPs may be used to deliver radioactive cargo to target cells and tissues. […] Spiked with 0.25 mCi Tc label, 25 nM intact or cleaved substrate. The target Jurkat cells were incubated with the peptides for 30 min at 37° C., and then washed 3 times with HBSS (HEPES-buffered saline solution) at room temperature (RT). 20 hours later, cells were counted by Gamma counter.
Spiked (4%) with 60 μCi ^99mTc-labeled peptide, the target Jurkat cells were loaded with 2 μM intact or MMP-9-cleaved peptide at 37° C. for 30 min. Then, the cells were washed with RT HBSS 3 times, and counted (Gamma counter) 20 hours later.
The use of ACPP labeled with technetium-99m (^99mTc) as described in Example 19 can be extended for use as an imaging agent for mouse models of cancer. One obvious advantage of gamma scintigraphy as compared to fluorescent imaging is that gamma imaging reaches much deeper into tissue. As described above, various carrier-conjugated ACPPs that incorporate N-epsilon-bis(2-pyridylmethyl)lysine (DPK), a high-affinity chelator for technetium tricarbonyl, Tc(CO)3, have been prepared. […] The simplest of these compounds, (11 KDa-mPEG)-e9-XPLGLAG-r9-[DPK-^99mTc(CO)3] was first tested on isolated cultured cells. (Note: X denotes a 6-aminohexanoyl spacer, and lower case letters denote D-amino acids.) Before cleavage, the uptake of this CPP into Jurkat lymphocytes was only 1.9% of the positive control CPP, r9-[DPK-^99mTc(CO)3].

[7] = test system: HT1080 tumor xenografts or mammary tumors (MMTV-PyMT); assay: In-vivo phage selection; parameters: species or system mice; conditions: mouse
Method: as §1

[8] = test system: MMP-2; assay: Cleavage kinetics for MMP-2 cleavage; type: biochemical
Source text: Cleavage kinetics for MMP-2 cleavage of H2N-e6-XPLGLAG-r9-Xc(Cy5)-CONH2 (where X≡aminohexanoic acid) are illustrated in FIG. 27.
Cleavage of a MMP-2 substrate ACPP is illustrated in FIG. 27.

[9] = test system: human squamous cell carcinoma specimens; assay: Staining of freshly resected squamous cell carcinoma slices
Method: Squamous Cell Carcinoma Specimens. Human squamous cell carcinoma specimens from planned resections of neoplasms were collected postoperatively according to a protocol with institutional review board approval. The specimens were in ice-cold normal saline for 30 min during transport back to the laboratory, where they were cut by hand to ≈1-mm-thick slices, added to 1 ml of 1 μM peptide for 15 min at room temperature, rinsed five times for 2 min in 1 ml of HBSS, cryosectioned, and imaged as described above.
ACPPs Light Up Human Squamous Cell Carcinomas. Although human tumor cell lines xenografted into immunodeficient mice are popular cancer models, they fail to mimic many aspects of real human tumors. […] Contrast, defined as (tumor tissue fluorescence−autofluorescence)/(normal tissue fluorescence−autofluorescence), was almost eight in this example. […]
Images from tumor tissue treated with cleavable peptide are much clearer than are images from similar tumor tissue treated with “scrambled” uncleavable peptides and are much clearer than images from normal tongue tissue treated with cleavable peptide. […] Sections were taken for fluorescence microscopy using a low-power objective, and tissue type was verified by staining tissue. […]

[10] = test system: HT-1080 tumors; assay: In vivo fluorescence imaging of HT-1080 tumor xenografts; parameters: species or system nude mice; conditions: mean±SE
Method: Xenografts in Mice. Nude mice (age, 4-6 weeks) were injected s.c. with ≈10^6 HT-1080 cells. […] Animals were then imaged at various times by using a Nikon f/1.2 camera lens in front of a cooled charge-coupled device camera (SenSys, Photometrics, Tucson, Ariz.). For longer lasting imaging studies, animals were allowed to wake up after 2 h of anesthesia and were reanesthetized at ≈4 and 6 hr for further data collection. […] After imaging was ended, animals were killed with halothane, and organs of interest were harvested and weighed. […] Cy5 fluorescence was imaged as described above.
We next tested whether ACPPs could light up protease expressing human tumor xenografts in whole mice. We chose HT-1080 tumors in the axilla of nude mice because these tumors express both MMP-2 and MMP-9 and have been used to test other MMP-2 cleavable contrast agents (22, 26). […] Anesthetized mice were injected through the tail vein with either an MMP-2 cleavable ACPP, an isomeric scrambled version verified not to be a substrate for MMP-2 or MMP-9, or an all-D-amino acid version. […] To quantitate the results, we measured the contrast index defined as (fluorescence intensity of tumor−autofluorescence)/(fluorescence of normal contralateral region−autofluorescence).

Sequence of furin (P09958 108-576 limits assumed): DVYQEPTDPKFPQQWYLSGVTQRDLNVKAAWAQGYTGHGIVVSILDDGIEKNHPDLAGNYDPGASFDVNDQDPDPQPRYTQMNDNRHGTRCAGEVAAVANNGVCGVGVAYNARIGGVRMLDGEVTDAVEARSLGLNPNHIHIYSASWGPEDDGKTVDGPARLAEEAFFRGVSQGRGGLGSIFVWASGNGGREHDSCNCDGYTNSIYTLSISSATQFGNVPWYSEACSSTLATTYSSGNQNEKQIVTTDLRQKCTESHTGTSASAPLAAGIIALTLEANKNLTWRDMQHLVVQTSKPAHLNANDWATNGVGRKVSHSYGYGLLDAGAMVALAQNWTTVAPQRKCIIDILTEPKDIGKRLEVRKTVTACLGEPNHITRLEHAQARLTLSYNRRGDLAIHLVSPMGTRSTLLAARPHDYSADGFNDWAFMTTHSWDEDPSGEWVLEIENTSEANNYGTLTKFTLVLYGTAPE

## IDKQLE
[1]
  Total # times isolated: 3
[2]
  # times identified in Nep/Mep/MMP-9 screen: 3

## mPEG-S—CH2CONH-e9-ahx-PLGLAG-r9-K[DOTA(Gd)]-CONH2
[3]; 8 μM
  increase in Gd uptake after cleavage: 19 -fold

## decanoyl-RVKR-chloromethylketone [reference compound]
[4]; control inhibitor
  IC50: 0.027 µM

## LPGMMG
[1]
  Total # times isolated: 5
[5]
  # times identified in liver/kidney/tumor screen: 5

## (11 KDa-mPEG)-e9-XPLGLAG-r9-[DPK-^99mTc(CO)3]
[6]
  increase in cell-associated radioactivity after cleavage: 57 -fold
[6]; after MMP-9
  uptake after cleavage, % of positive control: 107%
[6]; positive control r9-[DPK-99mTc(CO)3]
  uptake before cleavage, % of positive control CPP: 1.9%

## RWRTNF
[1]
  Total # times isolated: 4
[2]
  # times identified in Nep/Mep/MMP-9 screen: 4

## DSNAES
[1]
  Total # times isolated: 4
[2]
  # times identified in Nep/Mep/MMP-9 screen: 3
[5]
  # times identified in liver/kidney/tumor screen: 1

## ITDMAA
[7]
  # times identified in in-vivo screen: 1
[1]
  Total # times isolated: 4
[5]
  # times identified in liver/kidney/tumor screen: 3

## H2N-e6-XPLGLAG-r9-Xc(Cy5)-CONH2
[8]
  Km: 534 µM
  kcat: 15.0 s⁻¹
  kcat/Km: 28,037 M^−1s^−1

## mPEG(11kd)-e9-XPLGLAG-r9-Xk-NH2
[4]; intact / uncleaved peptide
  IC50: > 50 µM

## r9-K(DOTA-Gd) [reference compound]
[3]; ICP-MS
  Gd3+ uptake, positive control CPP: 504 µM

## mPEG(11 kd)-S—CH2—CONH-ahx-e9-ahx-PLGLAG-r9-ahx-k-CONH2
[6]
  increase in cell-associated radioactivity after cleavage: 38 -fold

## WRPCES
[7]
  # times identified in in-vivo screen: 1
[1]
  Total # times isolated: 3
[2]
  # times identified in Nep/Mep/MMP-9 screen: 2

## (5 kDa PEG)-eeeeeeeeeXPLGLAG-rrrrrrrrrXk(Cy5) [cleavable peptide]
[9]; mean±SD, two patients
  contrast, relatively differentiated oral cavity_oropharynx tumors: 2.7±0.2
[9]; two tumors
  contrast, high-grade laryngeal tumors: 6.5±3.4

## ARKRSQ
[1]
  Total # times isolated: 2
[2]
  # times identified in Nep/Mep/MMP-9 screen: 2

## GLWQGP
[1]
  Total # times isolated: 7
[5]
  # times identified in liver/kidney/tumor screen: 7

## WRNTIA
[1]
  Total # times isolated: 3
[2]
  # times identified in Nep/Mep/MMP-9 screen: 3

## e9-XPLGLAG-r9-Xk-NH2
[4]; intact / uncleaved peptide
  IC50: 27 µM

## [11 kDa PEG]-X-e9-XPLG*LAG-r9 [cleavable ACPP]
[10]
  contrast index (tumor−autofluorescence)/(normal contralateral−autofluorescence): 2.1±0.17

## RLQLKL
[7]
  # times identified in in-vivo screen: 1
[1]
  Total # times isolated: 12
[5]
  # times identified in liver/kidney/tumor screen: 11

## GMMYRS
[1]
  Total # times isolated: 4
[2]
  # times identified in Nep/Mep/MMP-9 screen: 1
[5]
  # times identified in liver/kidney/tumor screen: 3

## GGHTRQ
[1]
  Total # times isolated: 2
[2]
  # times identified in Nep/Mep/MMP-9 screen: 2

## [11 kDaPEG]-X-e9-XLALGPG-r9 [scrambled isomer]
[10]
  contrast index (tumor−autofluorescence)/(normal contralateral−autofluorescence): 1.3±0.16

## [11-kDa PEG]-X-e9-Xplglag-r9-Xk(Cy5) [all-D-amino acid control]
[10]
  contrast index (tumor−autofluorescence)/(normal contralateral−autofluorescence): 1.5±0.11

## HEVVAG
[1]
  Total # times isolated: 2
[2]
  # times identified in Nep/Mep/MMP-9 screen: 2

## (11-KDa-mPEG)-e9-XPLGLAG-r9-K(DOTA-Gd)
[3]; 8 μM
  increase in Gd uptake after cleavage: 19 -fold
[3]; 8 μM, ICP-MS
  Gd3+ uptake, MMP-9-cleaved peptide: 737 µM
  Gd3+ uptake, intact peptide: 39 µM

## FMEIET
[1]
  Total # times isolated: 3
[2]
  # times identified in Nep/Mep/MMP-9 screen: 3

## DVGTTE
[1]
  Total # times isolated: 5
[2]
  # times identified in Nep/Mep/MMP-9 screen: 5

## QCTGRF
[7]
  # times identified in in-vivo screen: 1
[1]
  Total # times isolated: 6
[2]
  # times identified in Nep/Mep/MMP-9 screen: 1
[5]
  # times identified in liver/kidney/tumor screen: 4

## INGKVT
[1]
  Total # times isolated: 2
[2]
  # times identified in Nep/Mep/MMP-9 screen: 2

## TSAVRT
[7]
  # times identified in in-vivo screen: 2
[1]
  Total # times isolated: 2

## Ac-r9-k-NH2 [reference compound]
[4]; intact / uncleaved peptide
  IC50: 3.4 µM

## TDLGAM
[1]
  Total # times isolated: 5
[5]
  # times identified in liver/kidney/tumor screen: 5
